Laboratory results from ChEMBL document CHEMBL5365408, “Small molecule inhibitors of PCSK9. SAR investigations of head and amine groups” (Bioorg Med Chem Lett, 2023).
Values belong to the molecule of their own block, whether it stands above or below them.

Tests used:
[1] = Cytotoxicity against rat Bone marrow cell assessed as inhibition of cell growth with (R)-4-(3H-[1,2,3]triazolo[4,5-b]pyridin-3-yl)-N-(3-chloropyridin-2-yl)-N-(piperidin-3-yl) benzamide as high potent effect standard by celltiter-glo assay; format: toxicity, cell-based; conditions: rat, rat bone marrow cells
[2] = target: T1, Proprotein convertase subtilisin/kexin type 9 (Homo sapiens, UniProt Q8NBP7); experiment: Inhibition of full length human PCSK9 expressed in human Huh-7 cells by ELISA analysis; format: cell-based
T1 sequence (Q8NBP7 31-152 limits assumed): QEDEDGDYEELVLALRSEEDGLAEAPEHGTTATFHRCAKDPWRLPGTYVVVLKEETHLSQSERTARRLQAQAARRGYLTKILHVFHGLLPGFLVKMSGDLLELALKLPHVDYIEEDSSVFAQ
T1 sequence (Q8NBP7 153-692 limits assumed): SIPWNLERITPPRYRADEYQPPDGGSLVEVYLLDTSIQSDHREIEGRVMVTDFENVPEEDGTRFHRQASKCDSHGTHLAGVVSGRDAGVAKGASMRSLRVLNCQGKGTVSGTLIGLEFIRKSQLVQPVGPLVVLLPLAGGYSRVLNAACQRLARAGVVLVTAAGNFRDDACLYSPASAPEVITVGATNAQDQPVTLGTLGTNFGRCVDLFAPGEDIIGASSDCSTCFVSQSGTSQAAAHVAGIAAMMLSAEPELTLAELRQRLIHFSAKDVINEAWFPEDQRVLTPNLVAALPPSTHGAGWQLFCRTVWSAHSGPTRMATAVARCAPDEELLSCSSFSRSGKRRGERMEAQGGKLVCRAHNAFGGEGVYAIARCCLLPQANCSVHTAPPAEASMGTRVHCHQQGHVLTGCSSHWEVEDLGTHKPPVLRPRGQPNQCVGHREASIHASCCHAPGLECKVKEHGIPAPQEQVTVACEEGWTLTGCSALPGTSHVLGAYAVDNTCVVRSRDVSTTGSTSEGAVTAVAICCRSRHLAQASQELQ

[3] = Cytotoxicity against rat Bone marrow cell assessed as inhibition of cell growth with puromycin as high potent effect standard by celltiter-glo assay; format: toxicity, cell-based; conditions: rat bone marrow cells
[4] = Selectivity index, ratio of IC50 for cytotoxicity against rat Bone marrow cell assessed as inhibition of cell growth by celltiter-glo assay to IC50 for inhibition of full length human PCSK9 expressed in human Huh-7 cells by ELISA analysis
[5] = Apparent permeability across apical to basolateral side in MDCK-MDR1 cells; format: ADME, cell-based, Canis lupus familiaris; conditions: dog, read-out: permeability
[6] = Apparent permeability of compound in MDCK-II cells; format: ADME, cell-based, Canis lupus familiaris; conditions: dog, read-out: permeability
[7] = target: CYP2C9 (Homo sapiens, UniProt P11712); experiment: Inhibition of CYP2C9 (unknown origin) at 3 uM relative to control; format: ADME
Chain of CYP2C9 (P11712 whole entry): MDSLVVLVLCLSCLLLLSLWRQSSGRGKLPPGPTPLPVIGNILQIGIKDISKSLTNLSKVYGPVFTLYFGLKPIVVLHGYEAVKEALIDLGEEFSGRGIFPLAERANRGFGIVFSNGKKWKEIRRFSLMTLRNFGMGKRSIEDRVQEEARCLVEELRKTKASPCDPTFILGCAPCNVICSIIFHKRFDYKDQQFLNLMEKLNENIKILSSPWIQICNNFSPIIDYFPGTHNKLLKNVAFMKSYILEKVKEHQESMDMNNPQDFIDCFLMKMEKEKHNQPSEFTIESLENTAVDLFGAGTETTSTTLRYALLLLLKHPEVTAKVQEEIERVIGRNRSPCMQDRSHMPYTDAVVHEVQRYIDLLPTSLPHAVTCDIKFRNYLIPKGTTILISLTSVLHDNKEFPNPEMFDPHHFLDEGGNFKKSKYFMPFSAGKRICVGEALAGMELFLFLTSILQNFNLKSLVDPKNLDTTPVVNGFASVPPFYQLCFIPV

[8] = target: Voltage-gated inwardly rectifying potassium channel KCNH2 (Homo sapiens, UniProt Q12809); experiment: Inhibition of hERG by patch clamp assay; format: toxicity
Chain of Voltage-gated inwardly rectifying potassium channel KCNH2 (Q12809 whole entry): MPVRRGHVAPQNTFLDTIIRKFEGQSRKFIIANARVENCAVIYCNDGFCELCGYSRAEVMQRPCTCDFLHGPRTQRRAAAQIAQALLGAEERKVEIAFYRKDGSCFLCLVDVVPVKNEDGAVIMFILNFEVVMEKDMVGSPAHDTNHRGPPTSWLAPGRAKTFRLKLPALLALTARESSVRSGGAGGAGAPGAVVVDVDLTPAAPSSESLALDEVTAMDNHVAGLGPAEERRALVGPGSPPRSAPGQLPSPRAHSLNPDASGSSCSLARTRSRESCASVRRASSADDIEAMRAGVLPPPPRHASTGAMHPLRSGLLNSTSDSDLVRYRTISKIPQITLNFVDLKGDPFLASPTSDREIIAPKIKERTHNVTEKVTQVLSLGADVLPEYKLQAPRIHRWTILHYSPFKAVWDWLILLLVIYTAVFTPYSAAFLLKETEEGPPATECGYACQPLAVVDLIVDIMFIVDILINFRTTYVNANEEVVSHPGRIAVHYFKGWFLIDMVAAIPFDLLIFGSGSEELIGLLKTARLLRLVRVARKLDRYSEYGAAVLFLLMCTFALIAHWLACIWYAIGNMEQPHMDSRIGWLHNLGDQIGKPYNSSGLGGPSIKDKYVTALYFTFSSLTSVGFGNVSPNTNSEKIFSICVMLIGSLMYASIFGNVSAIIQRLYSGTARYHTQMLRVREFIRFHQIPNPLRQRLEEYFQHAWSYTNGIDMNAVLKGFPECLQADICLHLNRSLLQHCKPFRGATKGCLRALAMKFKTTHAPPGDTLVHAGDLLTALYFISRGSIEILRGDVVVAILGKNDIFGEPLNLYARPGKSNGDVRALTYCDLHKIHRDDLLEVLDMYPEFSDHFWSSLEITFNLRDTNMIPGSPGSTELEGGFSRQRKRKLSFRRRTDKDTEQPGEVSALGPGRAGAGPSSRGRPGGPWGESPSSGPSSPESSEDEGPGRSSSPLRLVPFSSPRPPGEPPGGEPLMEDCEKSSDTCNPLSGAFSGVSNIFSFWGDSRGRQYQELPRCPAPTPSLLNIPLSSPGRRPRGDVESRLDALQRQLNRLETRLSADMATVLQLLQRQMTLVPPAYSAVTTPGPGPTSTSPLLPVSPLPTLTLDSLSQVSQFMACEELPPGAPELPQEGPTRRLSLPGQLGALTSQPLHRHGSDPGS

[9] = Lipophilicity, log D of the compound by shake flask method; format: physicochemical; conditions: octanol/water
[10] = target: CYP2D6 (Homo sapiens, UniProt P10635); experiment: Inhibition of CYP2D6 (unknown origin) at 3 uM relative to control; format: ADME
Chain of CYP2D6 (P10635 whole entry): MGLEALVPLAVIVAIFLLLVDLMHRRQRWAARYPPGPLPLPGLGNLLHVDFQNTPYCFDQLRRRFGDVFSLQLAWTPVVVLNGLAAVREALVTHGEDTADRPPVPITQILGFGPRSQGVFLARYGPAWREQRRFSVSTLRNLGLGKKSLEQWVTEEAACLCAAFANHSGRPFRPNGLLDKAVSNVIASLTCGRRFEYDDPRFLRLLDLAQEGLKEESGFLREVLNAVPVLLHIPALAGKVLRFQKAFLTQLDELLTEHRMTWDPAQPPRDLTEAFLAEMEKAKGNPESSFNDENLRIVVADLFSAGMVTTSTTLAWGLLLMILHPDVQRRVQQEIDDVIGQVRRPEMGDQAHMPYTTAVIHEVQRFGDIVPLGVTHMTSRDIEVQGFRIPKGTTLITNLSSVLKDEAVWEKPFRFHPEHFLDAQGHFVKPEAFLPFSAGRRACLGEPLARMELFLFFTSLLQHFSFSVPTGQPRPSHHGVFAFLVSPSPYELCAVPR

[11] = Apparent permeability across basolateral to apical side in MDCK-MDR1 cells; format: ADME, cell-based, Canis lupus familiaris; conditions: dog, read-out: permeability
[12] = target: T2, CYP1A2 (Homo sapiens, UniProt P05177); experiment: Inhibition of CYP1A2 (unknown origin) at 3 uM relative to control; format: ADME
T2 sequence (P05177 whole entry): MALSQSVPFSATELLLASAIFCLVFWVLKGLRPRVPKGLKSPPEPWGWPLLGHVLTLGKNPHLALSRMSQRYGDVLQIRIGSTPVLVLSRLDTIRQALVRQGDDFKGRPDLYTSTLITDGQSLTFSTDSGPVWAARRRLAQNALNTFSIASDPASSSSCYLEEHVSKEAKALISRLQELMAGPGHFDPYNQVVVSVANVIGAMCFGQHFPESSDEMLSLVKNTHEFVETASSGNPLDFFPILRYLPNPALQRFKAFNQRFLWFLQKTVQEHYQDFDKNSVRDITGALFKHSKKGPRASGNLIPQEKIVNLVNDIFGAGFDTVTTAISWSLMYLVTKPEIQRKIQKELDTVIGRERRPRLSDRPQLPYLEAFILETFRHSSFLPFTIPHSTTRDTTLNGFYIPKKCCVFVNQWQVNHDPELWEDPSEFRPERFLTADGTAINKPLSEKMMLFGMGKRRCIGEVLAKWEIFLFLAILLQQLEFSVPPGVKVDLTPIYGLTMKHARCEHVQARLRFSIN

[13] = target: CYP3A4 (Homo sapiens, UniProt P08684); experiment: Inhibition of CYP3A4 (unknown origin) at 3 uM relative to control; format: ADME
Chain of CYP3A4 (P08684 whole entry): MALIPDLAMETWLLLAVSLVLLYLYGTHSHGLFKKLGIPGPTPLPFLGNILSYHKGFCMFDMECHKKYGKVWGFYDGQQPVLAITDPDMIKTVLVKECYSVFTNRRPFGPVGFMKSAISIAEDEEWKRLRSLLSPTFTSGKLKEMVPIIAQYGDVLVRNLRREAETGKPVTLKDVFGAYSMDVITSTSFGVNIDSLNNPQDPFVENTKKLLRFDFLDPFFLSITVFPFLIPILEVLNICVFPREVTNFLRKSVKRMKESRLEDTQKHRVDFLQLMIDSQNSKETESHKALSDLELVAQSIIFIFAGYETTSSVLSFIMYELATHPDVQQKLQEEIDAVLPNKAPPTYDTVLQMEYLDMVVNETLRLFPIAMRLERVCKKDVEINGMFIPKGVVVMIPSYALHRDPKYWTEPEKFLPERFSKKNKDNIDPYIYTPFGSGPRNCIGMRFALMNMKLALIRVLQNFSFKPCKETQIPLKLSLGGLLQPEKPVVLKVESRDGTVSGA

[14] = Unbound fraction in mouse plasma by equilibrium dialysis analysis; format: ADME, cell-free
[15] = Cytotoxicity against human CD34-positive cell assessed as reduction in cell growth by celltiter-glo assay; format: toxicity, cell-based; conditions: human CD34-positive cells
[16] = Unbound fraction in human plasma by equilibrium dialysis analysis; format: ADME, cell-free
[17] = system: Mus musculus; experiment: Downregulation of PCSK9 level in po dosed mouse; format: functional, organism-based; conditions: dose 10-300 mg/kg
[18] = Toxicity in rat assessed as reduction in T cytotoxic cells in peripheral blood at 150 mg/kg, po measured for 14 days; format: organism-based, T-cell; conditions: in vivo, 336 h, time 14 day
[19] = Unbound fraction in rat plasma by equilibrium dialysis analysis; format: ADME, cell-free
[20] = Toxicity in rat assessed as mortality at 25 to 400 mg/kg, po measured for 14 days; format: organism-based; conditions: in vivo, 336 h, dose 25-400 mg/kg, time 14 day
[21] = Oral bioavailability in Sprague-Dawley rat at 5 mg/kg; format: ADME, organism-based; conditions: in vivo
[22] = Toxicity in rat assessed as reduction in B cells in peripheral blood at 150 mg/kg, po measured for 14 days; format: organism-based; conditions: in vivo, 336 h, time 14 day
[23] = Toxicity in rat assessed as reduction in T cells in peripheral blood at 150 mg/kg, po measured for 14 days; format: organism-based, T-cell; conditions: in vivo, 336 h, time 14 day
[24] = Clearance in Sprague-Dawley rat at 1 mg/kg, iv; format: ADME, organism-based; conditions: in vivo
[25] = Volume of distribution at steady state in Sprague-Dawley rat at 1 mg/kg, iv; format: ADME, organism-based; conditions: in vivo, read-out: Vdss
[26] = Half life in Sprague-Dawley rat at 1 mg/kg, iv; format: ADME, organism-based; conditions: in vivo
[27] = Cmax in rat at 25 mg/kg, po; format: ADME, organism-based; design: dose 25 mg/kg, route po; conditions: in vivo
[28] = Cmax in Sprague-Dawley rat at 1 mg/kg, iv; format: ADME, organism-based; design: dose 1 mg/kg, route iv; conditions: in vivo
[29] = Toxicity in rat assessed as reduction in T helper cells in peripheral blood at 150 mg/kg, po measured for 14 days; format: organism-based, T-cell; conditions: in vivo, 336 h, time 14 day
[30] = target: T1, Proprotein convertase subtilisin/kexin type 9; experiment: Inhibition of full length human PCSK9 expressed in human Huh-7 cells at 20 uM by ELISA analysis relative to control; format: cell-based

Compound: Cc1cccnc1N(C(=O)c1ccc(-c2cnn3cccnc23)cc1)[C@@H]1CCCNC1
- Papp A→B [5]: 0.4 ×10⁻⁶ cm/s
- Papp [6]: 7 ×10⁻⁶ cm/s
- Activity [17]: Dose-Dependent Effect
- inhibition at 3 µM [7]: < 5%
- Activity [18]: Non-Toxic
- Fu [19]: 0.32%
- IC50 [3]: 16.8 µM
- Activity [20]: Non-Toxic
- IC50 [8]: 56.5 µM
- bioavailability [21]: 20%
- logD [9]: 0.6
- IC50 [1]: 18.2 µM
- inhibition at 3 µM [10]: < 5%
- IC50 [2]: 2.25 µM
- Activity [22]: Non-Toxic
- Activity [23]: Non-Toxic
- Papp B→A [11]: 15.7 ×10⁻⁶ cm/s
- clearance [24]: 43.6 mL/min/kg
- inhibition at 3 µM [12]: < 5%
- inhibition at 3 µM [13]: < 5%
- Vd [25]: 3 L/kg
- Fu [14]: 0.37%
- Ratio IC50 [4]: 7.47
- half-life [26]: 1.7 h
- Cmax [27]: 255 ng/mL
- Cmax [28]: 121 ng/mL
- Activity [29]: Non-Toxic
- IC50 [15]: 13.6 µM
- Fu [16]: 0.54%

Compound: O=C(c1ccc(-c2cnn3cccnc23)cc1)N(c1ncccc1-c1ccccc1)[C@@H]1CCCNC1
- IC50 [3]: 4.39 µM
- IC50 [2]: 1.8 µM
- Ratio IC50 [4]: 2.43

Compound: NC(=O)NC[C@H]1CNC[C@H](N(C(=O)c2ccc(-n3nnc4cccnc43)cc2)c2ncccc2Cl)C1 (racemic)
- IC50 [2]: > 20 µM

Compound: C[C@H]1CNC[C@H](N(C(=O)c2ccc(-n3nnc4cccnc43)cc2)c2ncccc2Cl)C1 (racemic) [listing 1 of 2 here]
- inhibition [30]: 43%

Compound: C[C@H]1CNC[C@H](N(C(=O)c2ccc(-n3nnc4cccnc43)cc2)c2ncccc2Cl)C1 (racemic) [listing 2 of 2 here]
- IC50 [1]: 37.2 µM

Compound: O=C(c1ccc(-n2nnc3cccnc32)cc1)N(c1ncccc1Cl)[C@@H]1CCCNC1
- IC50 [3]: 1.15 µM
- IC50 [1]: 3.23 µM
- Cmax [27]: 312 ng/mL

Compound: O=C(c1ccc(-n2nnc3cccnc32)cc1)N(c1ncccc1Cl)[C@H]1CNC[C@H](Oc2ccccc2)C1 (racemic)
- IC50 [2]: > 20 µM

Compound: O=C(c1ccc(-n2nnc3cccnc32)cc1)N(c1ncccc1Cl)[C@H]1CNC[C@H](CO)C1 (racemic)
- IC50 [1]: 9.9 µM
- IC50 [2]: 8.9 µM

Compound: C[C@@H]1CNC[C@H](N(C(=O)c2ccc(-n3nnc4cccnc43)cc2)c2ncccc2Cl)C1 (racemic)
- IC50 [1]: 35.6 µM

Second part, led by results:

- IC50 [2]: > 20 µM
Compound: O=C(c1ccc(-n2nnc3cccnc32)cc1)N(c1ncccc1Cl)[C@H]1CNC[C@H](c2ccccc2)C1 (racemic)
- IC50 [1]: 12.5 µM

- IC50 [2]: 1.97 µM
Compound: Cc1cccnc1N(C(=O)c1ccc(-n2nnc3cccnc32)cc1)[C@@H]1CCCNC1
- IC50 [3]: 0.99 µM
- Ratio IC50 [4]: 0.5

- IC50 [2]: 0.62 µM
Compound: Cn1ncc2ccnc(N(C(=O)c3ccc(-n4nnc5cccnc54)cc3)[C@@H]3CCCNC3)c21
- IC50 [3]: 0.18 µM
- Ratio IC50 [4]: 0.29

- Papp A→B [5]: 0.7 ×10⁻⁶ cm/s
- Papp [6]: 7 ×10⁻⁶ cm/s
- inhibition at 3 µM [7]: < 40%
- logD [9]: 1.1
- inhibition at 3 µM [10]: < 40%
- IC50 [2]: 2.79 µM
- Papp B→A [11]: 26.4 ×10⁻⁶ cm/s
- inhibition at 3 µM [12]: < 40%
- inhibition at 3 µM [13]: < 40%
- Fu [14]: 0.13%
- Fu [16]: 0.41%
Compound: O=C(c1ccc(-c2cnn3cccnc23)cc1)N(c1ncccc1C(F)(F)F)[C@@H]1CCCNC1
- IC50 [3]: > 20 µM
- IC50 [8]: 57.6 µM
- IC50 [1]: 21.2 µM
- Ratio IC50 [4]: 7.6
- IC50 [15]: 35.9 µM

- IC50 [2]: 16.9 µM
Compound: COc1cccnc1N(C(=O)c1ccc(-c2cnn3cccnc23)cc1)[C@@H]1CCCNC1

- IC50 [2]: 1.09 µM
Compound: Cc1ccnc(N(C(=O)c2ccc(-n3nnc4cccnc43)cc2)[C@@H]2CCCNC2)c1Cl
- IC50 [3]: 0.38 µM
- Ratio IC50 [4]: 0.35

- IC50 [2]: > 20 µM
Compound: CO[C@H]1CNC[C@H](N(C(=O)c2ccc(-n3nnc4cccnc43)cc2)c2ncccc2Cl)C1 (racemic)
- IC50 [1]: 76.6 µM

- IC50 [2]: > 20 µM
Compound: CNC(=O)OC[C@H]1CNC[C@H](N(C(=O)c2ccc(-n3nnc4cccnc43)cc2)c2ncccc2Cl)C1 (racemic)

- IC50 [2]: 1.84 µM
Compound: Cc1nccnc1N(C(=O)c1ccc(-n2nnc3cccnc32)cc1)[C@@H]1CCCNC1
- IC50 [3]: 2.36 µM
- IC50 [1]: 10.9 µM
- Ratio IC50 [4]: 1.28
